The results in this text go back to patent publication US20110166156A1, “Prodrugs for the Treatment of Schizophrenia and Bipolar Disease” (Alkermes, Inc., priority 2010, published 2011).

A short description of this data set: Pharmacokinetic evaluation of paliperidone prodrugs in rats, intramuscular administration (Study 1 and Study 2). The class given is in vivo, Sprague-Dawley rats. The note with it: male rats, IM, milled crystalline suspension, plasma by LC-MS/MS; for Cmax: combined Study 1 and Study 2, compared in The FIGURE with the other prodrugs tested; for Tmax: combined Study 1 and Study 2, shown in The FIGURE. As to the method: Two PK studies were conducted using intramuscular (IM) administration in rats of water-insoluble paliperidone prodrugs and the results were combined in The FIGURE.
Animals: 18 Male Sprague-Dawley rats (Charles River Laboratories, Wilmington, Mass.) were used in the study. Three groups of 6 rats were used and are referred to in this study as Groups A, B and C. Rats were approximately 350-375 g at time of arrival. Rats are housed 2 per cage with ad libitum chow and water. Environmental conditions in the housing room: 64-67° F., 30% to 70% relative humidity, and 12:12-h light:dark cycle. All experiments were approved by the institutional animal care and use committee.
Pharmacokinetics study: Rats were dosed IM by means of a 23 gauge, 1 inch needle with 1 cc syringe 0.3 mL suspension was withdrawn from the vial containing the test compound in suspension. The rat was injected in the muscles of the hind limb after anesthesia with isoflurane. Blood samples were collected via a lateral tail vein after brief anesthesia with Isoflurane. A 27½ G needle and 1 cc syringe without an anticoagulant was used for the blood collection. Approximately 35 0 μL of whole blood was collected at each sampling time point of 6 hours, 24 hours and 2, 5, 7, 9, 12, 14, 21, 28, 35 days after administration. Once collected, whole blood was immediately transferred to tubes containing K2 EDTA, inverted 10-15 times and immediately placed on ice. The tubes were centrifuged for 2 minutes at >14,000 g's (11500 RPMs using Eppendorf Centrifuge 5417C, F45-30-11 rotor) at room temperature to separate plasma. Plasma samples were transferred to labeled plain tubes (MICROTAINER®) and stored frozen at <−70° C.
Data Analysis: Drug concentrations in plasma samples were analyzed by liquid chromatography-mass spectroscopy (LC-MS/MS) using appropriate parameters for each compound. Half-life of Paliperidone, maximal concentration (Cmax), time to maximal concentration (Tmax), and AUC were calculated by using WinNonlin version 5.2 software (Pharsight, St. Louis, Mo.).
Pharmacokinetics study: Rats were dosed IM by means of a 23 gauge, 1 in. needle with 1 cc syringe 0.3 mL suspension was withdrawn from the vial containing the test compound in suspension. The rat was injected in the muscles of the hind limb after anesthesia with isoflurane. Blood samples were collected via a lateral tail vein after brief anesthesia with Isoflurane. […]
Data Analysis: Drug concentrations in plasma samples were analyzed by liquid chromatography-mass spectroscopy (LC-MS/MS) using appropriate parameters for each compound. Half-life, maximal concentration, time to maximal concentration and AUC were calculated by using WinNonlin version 5.2 software (Pharsight, St. Louis, Mo.). […]

As for `CCCCCCCCCCCCCCCC(=O)OCOC1CCCn2c1nc(C)c(CCN1CCC(c3noc4cc(F)ccc34)CC1)c2=O` (stereo not shown) [Compound 157], the Cmax entry is reported as “lower than that of the other compounds” and the Tmax entry was “delayed”.
As for `CCCCCCCCCCCCCCCC(=O)OC1CCCn2c1nc(C)c(CCN1CCC(c3noc4cc(F)ccc34)CC1)c2=O` (stereo not shown) [PP, Paliperidone Palmitate], the Cmax entry is recorded as “lower than that of the other compounds” and the Tmax entry is listed as “delayed”.
